Reference: US6063774A, “Tricyclic quinoxaline derivatives as neuroprotective agents” (Warner-Lambert Company, priority 1998, dated 2000)

Tests used:
[1] = target: T1, glycine site of the NMDA receptor (Rattus norvegicus, UniProt P35439); assay: glycine site of NMDA receptor binding (Jones et al.); settings: Table 1
T1 construct: from tissue

[2] = target: kainate site (non-NMDA receptor); assay: kainate site binding (London and Coyle); settings: Table 1
mice = assay: maximal electroshock time course in mice, with and without probenecid pretreatment; type: in vivo
Experimental: FIG. 1 plots maximal electroshock time course with Compound 1 of the invention, with and without probenecid pretreatment in mice.
The graph is the percent of mice protected versus the time in minutes. The solid circle (.circle-solid.) is the compound from Example 1. In a separate experiment the solid square (.box-solid.) the compound from Example 1 (10 mg/kg, IV) was given to mice (n=5) pretreated with probenecid 30 minutes before the compound.

AMPA receptors = assay: AMPA receptor binding (Honore et al.); settings: Table 1

| Structure (SMILES) | IC50 [1] [µM] | IC50 KA [2] [µM] | effect of probenecid pretreatment on protection against maximal electroshock (mice; 10 mg/kg IV, n=5 mice, probenecid 30 minutes before the compound) | protection against maximal electroshock (in words) (mice; 30 mg/kg IV, 5 mice, percent of mice protected versus time plotted in FIG. 1 only) | IC50 (AMPA receptors) [µM] |
| --- | --- | --- | --- | --- | --- |
| Cc1c([N+](=O)[O-])cc2[nH]c(=O)c(=O)n3c2c1CN(C)C(=O)C3 [Example 1, 6-8-Dimethyl-5-nitro-7,8-dihydro-3H-d,8,10a-triaza-cyclo-hepta[de]naphthalene-1,2,9-trione] | 0.2 | 1.55 | positively modulated by ion transporter substrates such as probenecid | indicative of the in vivo potency | 0.85 |
| Cc1c([N+](=O)[O-])cc2[nH]c(=O)c(=O)n3c2c1CN(C)C(=O)C3c1ccccc1 (centres unmarked) [Example 2, 6,8-Dimethyl-5-nitro-10-phenyl-7,8-dihdro-3H-3,8,10a-triaza-cyclohepta(de)morphthalene-1,2,9-trione] | 0.6 | 4.9 |  |  | 4.5 |
